The values below come from ChEMBL document CHEMBL4325854, “Synthetic small molecules as anti-biofilm agents in the struggle against antibiotic resistance” (Eur J Med Chem, 2019).

For assay [1], the system named is Staphylococcus epidermidis. In words: Antibiofilm activity against Staphylococcus epidermidis. The assay is classed as functional.
In assay [2] the test system is Enterococcus faecium. Put plainly: Antibiofilm activity against Enterococcus faecium. In kind it is functional.
In assay [3] the test system is Staphylococcus aureus. Put plainly: Antibiofilm activity against methicillin-resistant Staphylococcus aureus. The assay is classed as functional, organism-based. The note with it: for IC50: Staphylococcus aureus.
The test system of assay [4] is Enterococcus faecalis. In words: Antibiofilm activity against Enterococcus faecalis. In kind it is functional.
The subject of assay [5] is Acinetobacter baumannii. In words: Antibiofilm activity against Acinetobacter baumannii. In kind it is functional, organism-based.
In assay [6] the target is T1, Sortase A (Staphylococcus aureus, UniProt Q9S446).
T1 sequence (Q9S446 whole entry): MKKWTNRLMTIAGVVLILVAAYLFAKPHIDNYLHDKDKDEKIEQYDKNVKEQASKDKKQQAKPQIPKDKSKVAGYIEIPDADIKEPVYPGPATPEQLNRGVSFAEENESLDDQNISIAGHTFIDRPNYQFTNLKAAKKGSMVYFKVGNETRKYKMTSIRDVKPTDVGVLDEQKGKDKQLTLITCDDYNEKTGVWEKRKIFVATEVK
In words: Inhibition of Staphylococcus aureus SrtA.

The test system of assay [7] is Staphylococcus aureus. Put plainly: Antibiofilm activity against Staphylococcus aureus ATCC 6538. The assay is classed as functional, organism-based.
Assay [8] has as its system Staphylococcus aureus. In words: Synergistic antibacterial activity against methicillin-resistant Staphylococcus aureus assessed as fold reduction in oxacillin MIC. In kind it is functional.
Assay [9] deals with Staphylococcus aureus. Put plainly: Synergistic antibacterial activity against methicillin-resistant Staphylococcus aureus assessed as fold reduction in penicillin G MIC. In kind it is functional.
Assay [10] deals with T2, Fucose-binding lectin PA-IIL (Pseudomonas aeruginosa (strain ATCC 15692 / DSM 22644 / CIP 104116 / JCM14847 / LMG 12228 / 1C / PRS 101 / PAO1), UniProt Q9HYN5). Put plainly: Inhibition of biotinylated polymeric fucose binding to Pseudomonas aeruginosa LecB expressed in Escherichia coli BL21(DE3) preincubated for 1 hr followed by biotinylated polymeric fucose addition and measured after 1 hr.
Target sequence in this assay (Q9HYN5 whole entry): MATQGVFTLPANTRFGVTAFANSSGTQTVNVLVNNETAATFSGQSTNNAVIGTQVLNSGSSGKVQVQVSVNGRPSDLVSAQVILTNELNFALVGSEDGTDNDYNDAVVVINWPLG

For assay [11], the system named is Pseudomonas aeruginosa. Put plainly: Antibiofilm activity against Pseudomonas aeruginosa. In kind it is functional, organism-based.
In assay [12] the test system is Staphylococcus aureus. In words: Antibiofilm activity against Staphylococcus aureus ATCC 29213 at 25 ug/ml relative to control. The assay is classed as functional.
For assay [13], the system named is Staphylococcus epidermidis. In words: Antibiofilm activity against Staphylococcus epidermidis at 25 ug/ml relative to control. In kind it is functional.
For assay [14], the system named is Staphylococcus aureus. Put plainly: Antibiofilm activity against Staphylococcus aureus ATCC 29213 at 6.2 ug/ml relative to control. The assay is classed as functional.
The test system of assay [15] is Vibrio cholerae. In words: Antibiofilm activity against Vibrio cholerae. The assay is classed as functional, organism-based.
Assay [16] has as its system Vibrio cholerae. In words: Antibiofilm activity against Vibrio cholerae assessed as inhibition of biofilm dispersion. In kind it is functional, organism-based.
Assay [17] deals with Staphylococcus aureus. In words: Antibiofilm activity against methicillin-resistant Staphylococcus aureus isolate 2. In kind it is functional.
Assay [18] relates to Staphylococcus aureus. Put plainly: Antibiofilm activity against methicillin-resistant Staphylococcus aureus BAA-1707. The assay is classed as functional.
Assay [19] concerns Enterococcus. In words: Antibiofilm activity against vancomycin-resistant Enterococcus. In kind it is functional.
Assay [20] addresses T2, Fucose-binding lectin PA-IIL. Put plainly: Inhibition of N-(Fluorescein-5-yl)-N'-(alpha-L-fucopyranosyl ethylen)thiocarbamide binding to Pseudomonas aeruginosa PA14 LecB after 22 to 24 hrs by fluorescence polarization assay. For orientation: Fluorescence polarisation rises when a labelled molecule tumbles more slowly, as on binding a larger partner.
Target sequence in this assay (Q9HYN5 1-115): as the sequence (Q9HYN5 whole entry) above
The test system of assay [21] is Pseudomonas aeruginosa. Put plainly: Antibiofilm activity against Pseudomonas aeruginosa PAO1. The assay is classed as functional, organism-based.
Assay [22] relates to Pseudomonas aeruginosa. In words: Antibiofilm activity against Pseudomonas aeruginosa PA14. In kind it is functional, organism-based.
The test system of assay [23] is Pseudomonas aeruginosa. In words: Antibiofilm activity against Pseudomonas aeruginosa PA14 assessed as inhibition of biofilm dispersion. The assay is classed as functional, organism-based.
Assay [24] concerns Pseudomonas aeruginosa. In words: Antibiofilm activity against Pseudomonas aeruginosa PAO1 assessed as inhibition of biofilm dispersion. The assay is classed as functional, organism-based.
The test system of assay [25] is Staphylococcus aureus. In words: Antibiofilm activity against methicillin-resistant Staphylococcus aureus ATCC BAA-44. The assay is classed as functional, organism-based.
In assay [26] the test system is Staphylococcus aureus. Put plainly: Antibiofilm activity against methicillin-resistant Staphylococcus aureus ATCC BAA-44 preformed biofilms assessed as reduction in biofilm dispersion. The assay is classed as functional, organism-based.

Positions of bridges follow the written chain, without caps; N, C: chain ends. Residues, ends and D or L forms follow the SMILES beside them. Groups on a side chain read outwards from the residue. Chains are numbered I, II in the order given. *: point of attachment. Acetyl(C-α-L-Fucp) = C[C@@H]1O[C@@H](CC(=O)*)[C@@H](O)[C@H](O)[C@@H]1O

`CCc1cccc2nc3c(O)c(Br)cc(Br)c3nc12`: the MBEC came to 2.35 µM in assay [1] and 0.59 µM in assay [2].
In the case of `CCCCCCCCCCCC[N+](C)(C)CCNCC[N+](C)(C)CCCCCCCCCCCC`, the values for the MBEC in assay [3] and in assay [4] were 50 µM and 25 µM, respectively.
Regarding `CCCCCc1ccc(C(=O)NCCn2cc(CCCCCc3c[nH]c(N)n3)nn2)cc1`, the half-inhibitory concentration (IC50) in [3] and in [5] was 15200 to 34000 nM in each case.
As for `CCOC(=O)/C(=N/Nc1c(F)cccc1F)C(=O)c1cc(C)nn1CC`, the IC50 – broadly, the concentration needed to halve the response being measured – in [6] came to 75000 nM; in [7], 900 nM.
In assay [3], `CCCCCc1cccc(C(=O)NCCNC(=O)CCCCCc2cnc(N)[nH]2)c1` gave a concentration for half-maximal inhibition (IC50) of 6.5 µg/mL. Besides, the entries for the “fold change (FC)” value in [8] and in assay [9] were 64 and 16, respectively.
For the compound `CC[C@H](C)[C@H](NC(=O)[C@H](Cc1cnc[nH]1)NC(=O)[C@H](CCCCNC(=O)[C@@H](NC(=O)[C@H](CCCCN)NC(=O)[C@H](Cc1ccccc1)NC(=O)[C@H](CCCCNC(=O)[C@H](CC(C)C)NC(=O)[C@@H]1CCCN1C(=O)[C@H](CCCCN)NC(=O)C[C@@H]1O[C@@H](C)[C@@H](O)[C@@H](O)[C@@H]1O)NC(=O)[C@H](CC(C)C)NC(=O)[C@@H]1CCCN1C(=O)[C@H](CCCCN)NC(=O)C[C@@H]1O[C@@H](C)[C@@H](O)[C@@H](O)[C@@H]1O)[C@@H](C)CC)NC(=O)[C@@H](NC(=O)[C@H](CCCCN)NC(=O)[C@H](Cc1ccccc1)NC(=O)[C@H](CCCCNC(=O)[C@H](CC(C)C)NC(=O)[C@@H]1CCCN1C(=O)[C@H](CCCCN)NC(=O)C[C@@H]1O[C@@H](C)[C@@H](O)[C@@H](O)[C@@H]1O)NC(=O)[C@H](CC(C)C)NC(=O)[C@@H]1CCCN1C(=O)[C@H](CCCCN)NC(=O)C[C@@H]1O[C@@H](C)[C@@H](O)[C@@H](O)[C@@H]1O)[C@@H](C)CC)C(N)=O` (I: {Acetyl(C-α-L-Fucp)}-KPLK([Leu-Pro-Lys-Acetyl(C-α-L-Fucp)])FKIKHI-NH2 / II: {Acetyl(C-α-L-Fucp)}-KPLK([Leu-Pro-Lys-Acetyl(C-α-L-Fucp)])FKI; amide I:8-II:C), the IC50 in assay [10] was found to be 140 nM; in assay [11], 10000 nM.
`Cc1nn(C)c([N-]C(=O)c2ccc([N+](=O)[O-])cc2)c1[N+]#N`: the Activity is given as 69 - 96% in assay [12], 69 - 96% in [13] and 86.5% in [14].
For the compound `O[C@H](c1cc(-c2cccc(S(F)(F)(F)(F)F)c2)nc2ccccc12)[C@@H]1CCCN1`, in assay [15], the 50% inhibitory concentration (IC50) was determined as 4400 nM. In addition, in assay [16], the DC50 is 7400 nM.
`Oc1c(Br)cc(Br)c2ccc(CNc3ccc(F)cc3)nc12`: the MBEC in assay [1] came out at 5.9 µM; in assay [17], 93.8 µM; in [18], 7.8 µM; in assay [19], 1 µM.
The compound `Cc1cc(C)c(S(=O)(=O)NC[C@H]2O[C@@H](C)[C@@H](O)[C@@H](O)[C@@H]2O)c(C)c1` gave a half-maximal inhibitory concentration (IC50) in assay [20] of 340 nM.
`CCCCCCCCCCCCNC(=O)CCCc1c[nH]c(N)n1`: the IC50 was 2840 nM in assay [21], 2260 nM in [22], 2260 nM in assay [23] and 2800 nM in [24].
Turning to `CCCCC(Cl)(Cl)C1NC(=O)/C(=C/c2ccc(C(F)(F)F)cc2)O1` (centres undefined), the 50% inhibitory concentration (IC50) in assay [25] was determined as 780 nM; in [26], 4700 nM.
